Test results from patent publication US10081615B2, “Sulfamate derivative compounds for use in treating or alleviating pain” (Bio-Pharm Solutions Co., Ltd., priority 2013, dated 2018).
Like-named read-outs stand apart in the source and are kept apart here.

Experiments:
SNL model = assay: Antiallodynic activity in the Chung model (SNL, Spinal Nerve Ligation; von Frey); type: in vivo, Sprague-Dawley rats
Method: Male Sprague-Dawley rats (200-220 g, Orient Bio, Korea) were habituated for 1 week before the experiment and allowed free access to food and water throughout the experimentation. Room temperature and humidity were maintained at 24±2° C. and 50±10%, respectively. The neuropathic surgery (SNL, Spinal Nerve Ligation) model was done as described in Kim and Chung (1992). Briefly, an animal was put under gaseous anesthesia with isoflurane and NO2 with a 4:4 flow ratio. The left lumbar spinal nerves L5 and L6 were isolated and tightly ligated with 4-0 silk thread. The wound was treated with a gentamicin antibiotic solution (4 mg/kg, 4 ul/g by bodyweight), and the wound muscle was closed with Catgut® chrome 4/0 thread and the skin was closed with Dafilon 4/0 thread. Sham controls were prepared in the same manner with the spinal nerves were exposed, but no ligated L5 and L6 nerves. Preparation of the vehicle controls were identical to the group treated with compound, except for administration of vehicles without compound in the vehicle control group.
Tactile sensitivity (mechanical allodynia) was evaluated using von Frey monofilaments before and after treatment and animals the animals were included in the study only if the withdrawal threshold value was less than 4 g. One week after surgery, SNL-operated animals (n=4˜6), sham-operated animals (n=4˜10) and vehicle-operated animals (n=4˜13) were tested for tactile sensitivity with von Frey monofilaments with 3 trials in each animal. All animals were placed in a stainless steel mesh chamber and habituated for 30 min in the test cage. The tactile sensitivity for ipsilateral hind paw was measured using the up-and-down method (Dixon, 1980) with seven von Frey monofilaments (0.4, 1, 2, 4, 6, 8, and 15 g) in 3 trials. The tactile sensitivity test was followed by Dixon's method (Dixon, 1980). The 50% paw withdrawal threshold for each paw was calculated using the following formula: [Xth] log=[vFr] log+ky where [vFr] is the force of the last von Frey used, k=0.2249 which is the average interval (in log units) between the von Frey monofilaments, and y is a value that depends upon the pattern of withdrawal responses (Dixon, 1980).
All animals were fasted for 18 h before the administration of the compounds. The antiallodynic effect of the compounds were evaluated at the various doses (n=5˜6), orally administered in a volume of 5 ul/g by bodyweight in a vehicle of 30% (v/v) PEG 400 (Example 7) or 20% (v/v) Tween 80 (Examples 5 and 6) or saline. […]
The relative values compared to the sham group (% control) were calculated and are shown in Table 5, which show an antiallodynic effect of the test compounds in the SNL model in rats.

CFA-induced pain model = assay: Antiallodynic activity on Complete Freund's Adjuvant (CFA)-induced inflammatory pain model (von Frey); type: in vivo, Sprague-Dawley rats; conditions: ip, 0.5 h, read-out: CFA model: effect (%) compared to control
Method: Male, Sprague-Dawley rats (200-220 g, Nara Bio, Korea) were habituated for 1 week before surgery and allowed free access to food and water throughout the experimentation. Room temperature and humidity were maintained at 24±2° C. and 50±10%, respectively.
CFA-induced inflammatory pain was induced by the procedure of Nagakura et al. (2003) and Gregory P. et al. (2010) with minor modifications. CFA (sigma, USA) was injected into the left plantar with a 100 ul volume under gaseous anesthesia with isoflurane and NO2 with a 4:4 flow ratio. Sham controls were injected with 100 ul of saline and preparation of the vehicle controls were identical to the group treated with compound, except for administration of vehicles without compound in the vehicle control group.
Tactile sensitivity (mechanical allodynia) was evaluated using von Frey monofilaments before and after treatment, and the animals were included in the study only if the withdrawal threshold value was less than 4 g. One week after surgery, CFA-infused animals (n=4˜6), sham-operated animals (n=12), and vehicle-operated animals (n=17) were tested for tactile sensitivity with von Frey monofilaments, with 3 trials for each animal. All animals were placed in a stainless steel mesh chamber and habituated for 30 min in the test cage. The tactile sensitivity for the ipsilateral hind paw was measured using the up-and-down method (Dixon, 1980) with seven von Frey monofilaments (0.4, 1, 2, 4, 6, 8, and 15 g) in 3 trials. The tactile sensitivity test was followed by Dixon's method (Dixon, 1980). The 50% paw withdrawal threshold for each paw was calculated using the following formula: [Xth] log=[vFr] log+ky where [vFr] is the force of the last von Frey used, k=0.2249 which is the average interval (in log units) between the von Frey monofilaments, and y is a value that depends upon the pattern of the withdrawal responses (Dixon, 1980).
The antiallodynic effect of the compound of Example was evaluated at the doses of 10, 30 and 60 mg/kg (n=4˜6), and were intraperitoneally administered in a volume of 5 ul/g by bodyweight in a vehicle of 30% (v/v) PEG. […]
The relative values compared to the sham (% control) were calculated and are shown in Table 4, which show an antiallodynic effect of the compound of examples in the CFA-induced pain model in rats.

[1] = rat, oral, 3.5 mg/kg administered, time not given, read-out: SNL model: effect (%) compared to control
[2] = Rattus norvegicus, po, read-out: SNL model: effect (%) compared to control, rat, oral, 3.5 mg/kg administered, time not given
[3] = Rattus norvegicus, po, 0.5 h, read-out: SNL model: effect (%) compared to control, rat, oral, 3.5 mg/kg administered, 0.5 h

Compound `CC1(C)Oc2ccccc2[C@@H](COS([NH-])(=O)=O)O1.[Na+]` (hydrate or solvate) [Example 59, Sodium (S)-(((2,2-dimethyl-4H-benzo[d][1,3]dioxin-4-yl)methoxy)sulfonyl)amide Trihydrate] has a melting point of 51.2 to 52.2 °C.

For `CC1(C)Oc2ccccc2C(COS([NH-])(=O)=O)O1.[Na+]` (stereo not drawn) (hydrate or solvate) [Example 60, Sodium (((2,2-dimethyl-4H-benzo[d][1,3]dioxin-4-yl)methoxy)sulfonyl)amide Trihydrate], the melting point was 81 to 86 °C.

`CCC1(CC)Oc2ccccc2C(CCOS(N)(=O)=O)O1` (racemic) [Example 14, 2-(2,2-diethyl-4H-benzo[d][1.3]dioxin-4-yl)ethyl sulfamate] gave a response vs control in vivo at 3.5 mg/kg (SNL model; [1]) of 37.9%.

Work on `CC1(C)Oc2ccccc2CC(COS(N)(=O)=O)O1` (racemic) [Example 17, (2,2-dimethyl-4,5-dihydrobenzo[d][1,3]dioxepin-4-yl)methyl sulfamate] yielded a response vs control in vivo at 3.5 mg/kg (SNL model; rat, oral, 3.5 mg/kg administered, 0.5 h, read-out: SNL model: effect (%) compared to control) of 16.8%.

For `NS(=O)(=O)OCC1Cc2ccccc2OC2(CCCC2)O1` (racemic) [Example 19, (4,5-dihydrospiro[benzo[d][1,3]dioxepine-2,1′-cyclopentan]-4-yl)methyl sulfamate], the response vs control in vivo at 3.5 mg/kg (SNL model; [1]) was 33.3%.

`CC1(C)Oc2ccc(Cl)cc2[C@@H](COS(N)(=O)=O)O1` [Example 47, ((S)-6-chloro-2,2-dimethyl-4H-benzo[d][1,3]dioxin-4-yl)methyl sulfamate] showed a response vs control in vivo at 50 mg/kg (CFA-induced pain model; rat, intraperitoneal, 50 mg/kg administered) of 100%.

`CC1(C)Oc2ccc(Cl)cc2[C@H](COS(N)(=O)=O)O1` [Example 61, Sodium (R)-(((6-chloro-2,2-dimethyl-4H-benzo[d][1,3]dioxin-4-yl)methoxy)sulfonyl)amide] gave a response vs control in vivo at 3.5 mg/kg (SNL model; [2]) of 20.9%.

Compound `CC1(C)Oc2ccc(Cl)cc2[C@@H](COS([NH-])(=O)=O)O1.[Na+]` [Example 62, Sodium (S)-(((6-chloro-2,2-dimethyl-4H-benzo[d][1,3]dioxin-4-yl)methoxy)sulfonyl)amide] has a response vs control in vivo at 3.5 mg/kg (SNL model; [2]) of 32.6% and a melting point of 133.8 to 135.3 °C.

With `[NH-]S(=O)(=O)OC[C@@H]1OC2(CCCC2)Oc2ccccc21.[Na+]` [Example 64, Sodium (R)-(((4H-spiro[benzo[d][1,3]dioxine-2,1′-cyclopentan]-4-yl)methoxy)sulfonyl)amide] the response vs control in vivo at 3.5 mg/kg (SNL model; [2]) was 22.5% and the melting point was 132.9 to 134.9 °C.

In the case of `[NH-]S(=O)(=O)OCC1OC2(CCCC2)Oc2ccccc21.[Na+]` (stereo not drawn) [Example 66, Sodium (((4H-spiro[benzo[d][1,3]dioxine-2,1′-cylcopentan]-4-yl)methoxy)sulfonyl)amide], the response vs control in vivo at 3.5 mg/kg (SNL model; [3]) is reported as 59.5% and the melting point is reported as 145.5 to 148.9 °C.

Compound `[NH-]S(=O)(=O)OCC1OC2(CCCC2)Oc2ccc(Cl)cc21.[Na+]` (stereo not drawn) [Example 67, Sodium ((6-chloro-(4H-spiro[benzo[d][1,3]dioxine-2,1′-cyclopentan]-4-yl)methoxy)sulfonyl)amide] has a response vs control in vivo at 3.5 mg/kg (SNL model; [2]) of 49.1% and a melting point of 68.6 to 72.3 °C.

`CC1(C)Oc2ccccc2C(CCOS(N)(=O)=O)O1` (stereo not drawn) [Example 68, Sodium ((2-(2,2-dimethyl-4H-benzo[d][1,3]dioxin-4-yl)ethoxy)sulfonyl)amide] showed a response vs control in vivo at 3.5 mg/kg (SNL model; [3]) of 25%.

Work on `CC1(C)Oc2ccccc2C(COS(N)(=O)=O)O1` (stereo not drawn) [Example 72, Potassium (((2,2-dimethyl-4H-benzo[d][1,3]dioxin-4-yl)methoxy)sulfonyl)amide] yielded a response vs control in vivo at 50 mg/kg (CFA-induced pain model; Rattus norvegicus) of 67.1%.

With `CC1(C)Oc2ccccc2[C@@H](COS([NH-])(=O)=O)O1.[Li+]` [Example 73, Lithium (S)-(((2,2-dimethyl-4H-benzo[d][1,3]dioxin-4-yl)methoxy)sulfonyl)amide] the “SNL model: effect (%) compared to control” value (SNL model; rat, oral, 3.5 mg/kg administered, 0.5 h) was “(13.5%, 0.5 h)”.
